One data set has as its system normal cells. The conditions noted are these: cited from earlier work.
The conditions of data set [1]: cited from earlier work.
Data set [2] has as its system gastrointestinal cancer patients. The conditions noted are these: 43 patients; VK3 with mitomycin C; cited from earlier work.
The next data set concerns tumor growth. To be noted: cited from earlier work.
The next data set deals with livers of nude mice. To be noted: appreciably larger doses of VK3; cited from earlier work.
In a further data set the test system is humans. The conditions noted are these: cited from earlier work.
The subject of data set [3] is advanced lung cancer patients. To be noted: VK3 with mitomycin C, cited from earlier work.
A further data set has as its system hepatoma. To be noted: 10 mg/2 mL i.p. weekly for 4 weeks, cited from earlier work.
Data set [4] concerns T24 Human Bladder Cancer Cells. Description: MTT cytotoxicity assay against T24 cells. The class given is cell-based. To be noted: for IC50: Homo sapiens; for increase of cytotoxic potency in the combination over compound alone: VC/HT-1 200:1 after VC+VK3 pretreatment. How it is done: After 1 or 2 days of incubation at 37° C. in humidified CO2 in air, a colorimetric MTT assay (see below) was performed to evaluate the number of remaining viable T24 cells in each well.
The hydroxytolan HT-1 was dissolved in DMSO as 2 mM stock and was then subsequently diluted in MEM so that the final DMSO concentration in any well was <1%. Doubling dilutions of this stock solution were carried out as above.
This assay measures the formation of a colored product produced from a chromogenic substrate, the tetrazole 3-[4,5-dimethylthiazol-2-yl]-2,5 diphenyltetrazolium bromide (“MTT”). The yellow MTT is reduced to purple formazan in the mitochondria of living cells. A solubilization solution (typically dimethyl sulfoxide or sodium dodecyl sulfate (SDS) in dilute hydrochloric acid) is added to dissolve the insoluble purple formazan product into a colored solution. The absorbance of this colored solution is quantified by measuring at a certain wavelength (usually between 500 and 600 nm) by a spectrophotometer. […] This MTT assay is used widely to assess the cytotoxicity and selectivity of compounds such as anti-cancer drugs. The assay is suitable for rapid toxicity characterization of a test agent such as a drug formulation.
A lower CD50 indicates a greater cytotoxic activity (as a lower amount of the agent is needed to achieve a fixed level of cytotoxicity). Two agents can be compared by examining the fold-increase or decrease in their CD50 values.
The CD50 values were interpolated from the curves generated using 12 serial dilutions. When individual compounds were used a single CD50 value is shown. When a combination of two compounds was used, the CD50 of both compounds is presented. Values shown are the mean±standard error of three experiments with six readings per experiment.
For orientation: Tetrazolium dyes change colour on reduction, which living cells bring about.

In a further data set the test system is Mice. To be noted: daily 6.5 g/Kg for 6 weeks and 2 g/Kg for 2 years; cited from earlier work.
The test system of data set [5] is patients with advanced cancer. The conditions noted are these: 10 g oral VC; double-blind, placebo-controlled; cited from earlier work.
Another data set deals with terminal cancer patients. The conditions noted are these: cited from earlier work.
The mark [6] stands for this setting: T-24, 24 h, incubation time 1 day, compound alone, read-out: CD50 of compounds tested Individually.
Where [7] appears, read: T-24, 48 h, incubation time 2 days, compound alone, read-out: CD50 of compounds tested Individually.
Setting [8] is: T-24, read-out: CD50 of each compound tested in combination after pretreatment with VC and VK3, incubation time 1 day, VC:HT-1 200:1 mixture, 2 h pretreatment with 150 μM VC and 1.5 μM VK3.
Where [9] appears, read: T-24, read-out: CD50 of each compound tested in combination after pretreatment with VC and VK3, incubation time 2 days, VC:HT-1 200:1 mixture, 2 h pretreatment with 150 μM VC and 1.5 μM VK3.

SMILES strings stand for the structures. Where two headings read alike, the source gives them in different places.

Take `Oc1ccc(/C=C/c2cc(O)cc(O)c2)cc1` [resveratrol, 3,5,4′-trihydroxy-trans-stilbene]: the “toxicity to normal cells” value with normal cells is “significantly toxic to normal cells”. Further, the aqueous solubility result in [1] was “relatively low aqueous solubility”.
Regarding `CC1=CC(=O)c2ccccc2C1=O` [VK3, 2-methyl-1,4-naphthoquinone], the objective response result in data set [2] is “no objective response”. The “inhibition of tumor growth” value in the data set with tumor growth (VK3 225 mg/kg/day with methotrexate) is listed as 84%. The “inhibition of tumor growth” value with tumor growth (menadione 250 mg/kg/day with methotrexate 0.75 mg/kg/day) is 99%. The hepatotoxicity entry in the data set on livers of nude mice is on record as “no hepatotoxicity”. In the data set with humans (48-hour i.v. infusion, followed by mitomycin C every four weeks), the maximum tolerated dose is 2.5 g/m^2. The toxicity result in the data set with humans (400-500 mg/day over 3-5 consecutive days) is listed as “without any appreciable toxicity”. For the same molecule, the hemolysis entry in the data set on humans (VK3 2.5 g/m^2 then mitomycin C 15 mg/m2 every four weeks) is listed as “no hemolysis”. In data set [3] (23 patients), the median survival is reported as 5.5 months. In addition, in [3], the “patients with hematologic toxicity” value is 30% and the “patients with some tumor regression” value is 26%. The water solubility entry in data set [1] (bisulfate form) is “water soluble”. Also, the long term survivors in the data set on hepatoma is reported as 5 out of 16. The survival in the data set with hepatoma (controls 17 days) is 60 days.
As for `Oc1ccc(C#Cc2ccc(O)cc2)cc1` [HT-1, 4,4′-dihydroxytolan], the IC50 amounted to 21.5 µM in data set [4] (setting [6]), 10.5 ± 2.7 µM in data set [4] (setting [7]), 1.13 µM in data set [4] (setting [8]) and 0.94 ± 0.55 µM in [4] (setting [9]). Further, the “increase of cytotoxic potency in the combination over compound alone” value in [4] (after 1 day) is given as “about 19 fold”; in data set [4] (after 2 days), “about 11 fold”.
`O=C1O[C@H]([C@@H](O)CO)C([O-])=C1O.[Na+]` [VC, sodium ascorbate]: the “mortality, weight changes, blood chemistry, hematology, histology, other pathologies” value with Mice is “no abnormal rates”. Also, the IC50 amounted to 849 µM in data set [4] (setting [6]), 896 ± 59.8 µM in data set [4] (setting [7]), 226 µM in [4] (setting [8]) and 187 ± 99 µM in data set [4] (setting [9]). For the same molecule, in [5], the “effectiveness of oral VC” value is given as “no benefits”. Besides, the “mean survival time (MST)” value with terminal cancer patients (100 terminal cancer patients, 10 g/day i.v. for 10 days, then 10 g/day orally, controls 50 days) is listed as over 210 days. Further, the “MST, ovarian cancer subjects” value with terminal cancer patients (six treated subjects with ovarian cancer, controls 71 days) was 148 days.

The values above are taken from patent publication US8680142B2, “Ascorbate, vitamin K3 and hydroxytolans in the treatment of cancer” (Kent State University, priority 2007, dated 2014).
